The compounds below were run on HOS-TE85 (assay: Antiproliferative activity against human MNNG/HOS cells assessed as inhibition of cell growth incubated for 72 hrs by CCK8 assay). Settings: HOS-TE85, 72 h.
Format: functional, cell-based
In the case of O=C(NCCCCc1ccccc1)c1cccc(C2N(c3ccccc3)C(=O)C[S+]2[O-])n1 (configuration not stated), the IC50 is reported as 260 nM. Cc1cccnc1N1C(=O)CS(=O)(=O)C1c1cccc(C(=O)NCCCCc2ccccc2)n1 (configuration not stated) showed an IC50 of 50 nM. O=C(NCCCCc1ccccc1)c1cccc(C2N(c3ccccn3)C(=O)CS2(=O)=O)c1 (configuration not stated) showed an IC50 of 25 nM. Work on COCCCCNC(=O)c1cccc([C@H]2N(c3ncccc3OC)C(=O)CS2(=O)=O)n1 yielded an IC50 of 71 nM. Work on O=C(NCCCCc1ccccc1)c1cccc(C2N(C3CCCCC3)C(=O)CS2(=O)=O)c1 (configuration not stated) yielded an IC50 of 2020 nM. In the case of O=C(NCCCCc1ccccc1)c1cccc(C2N(c3ccccc3)C(=O)C[S+]2[O-])c1 (configuration not stated), the IC50 is reported as 3110 nM. With O=C(NCCCCc1ccccc1)c1cccc(C2N(c3ccc4ccccc4c3)C(=O)CS2(=O)=O)c1 (configuration not stated) the IC50 was 474 nM. O=C(NCCOCc1ccccc1)c1cccc(C2N(c3ccccn3)C(=O)CS2(=O)=O)n1 (configuration not stated) was tested, and the IC50 was > 1000 nM. O=C(NCCCCc1ccccc1)c1ccc(C2N(c3ccccc3)C(=O)CS2(=O)=O)cc1 (configuration not stated) was tested, and the IC50 was > 10000 nM. Compound O=C(NCCCCc1ccccc1)c1cccc(C2N(c3ccccc3)C(=O)CS2(=O)=O)c1 (configuration not stated) has an IC50 of 150 nM. With CN(CCCCc1ccccc1)C(=O)c1cccc(C2N(c3ccccc3)C(=O)CS2(=O)=O)c1 (configuration not stated) the IC50 was > 10000 nM. Work on O=C(NCCCCc1ccccc1)c1cccc(C2N(c3ncccc3F)C(=O)CS2(=O)=O)n1 (configuration not stated) yielded an IC50 of 25 nM. For O=C(NCCCCc1ccccc1)c1cccc(C2N(CCc3ccccc3)C(=O)CS2(=O)=O)c1 (configuration not stated), the IC50 was > 10000 nM. In the case of Cc1ccnc(N2C(=O)C[S+]([O-])C2c2cccc(C(=O)NCCCCc3ccccc3)c2)c1 (configuration not stated), the IC50 is reported as 74 nM. In the case of O=C(NCCCCO)c1cccc(C2N(c3ccccn3)C(=O)CS2(=O)=O)n1 (configuration not stated), the IC50 is reported as > 1000 nM. With Cc1ccnc(N2C(=O)C[S+]([O-])C2c2cccc(C(=O)NCCCCn3cccn3)n2)c1 (configuration not stated) the IC50 was 8290 nM. In the case of COCCCCNC(=O)c1cccc(C2N(c3ncccc3OC)C(=O)C[S+]2[O-])n1 (configuration not stated), the IC50 is reported as > 1000 nM. In the case of O=C(NCCCCc1ccccc1)c1cccc(C2N(c3cccc(F)c3)C(=O)CS2(=O)=O)c1 (configuration not stated), the IC50 is reported as 103 nM. Cc1cccc(N2C(=O)CS(=O)(=O)C2c2cccc(C(=O)NCCCCc3ccccc3)n2)n1 (configuration not stated) showed an IC50 of 775 nM. COc1cccnc1N1C(=O)CS(=O)(=O)C1c1cccc(C(=O)NCCCCc2ccccc2)c1 (configuration not stated) was tested, and the IC50 was 16 nM. Work on Cc1cccc(N2C(=O)C[S+]([O-])C2c2cccc(C(=O)NCCCCc3ccccc3)c2)c1 (configuration not stated) yielded an IC50 of 177 nM. For O=C(CCCNC(=O)c1cccc(C2N(c3ccccn3)C(=O)CS2(=O)=O)n1)c1ccccc1 (configuration not stated), the IC50 was 203 nM. O=C(NCCCCc1ccccc1)c1cccc(C2N(c3ccccn3)C(=O)CS2(=O)=O)n1 (configuration not stated) was tested, and the IC50 was 109 nM. In the case of O=C(NCCCCc1ccccc1)c1cccc(C2N(c3ccccc3)C(=O)CS2(=O)=O)n1 (configuration not stated), the IC50 is reported as > 10000 nM. O=C(NCCCCc1ccccc1)c1cccc(C2N(c3cc(Cl)ccn3)C(=O)CS2(=O)=O)n1 (configuration not stated) gave an IC50 of 469 nM. For Cc1ccnc(N2C(=O)CS(=O)(=O)C2c2cccc(C(=O)NCCCCc3ccccc3)c2)c1 (configuration not stated), the IC50 was 71 nM. COC(=O)CCCNC(=O)c1cccc(C2N(c3ccccn3)C(=O)CS2(=O)=O)n1 (configuration not stated) was tested, and the IC50 was 142 nM. Cc1ccnc(N2C(=O)CS(=O)(=O)C2c2cccc(C(=O)NCCCCn3cccn3)n2)c1 (configuration not stated) showed an IC50 of 924 nM. For O=C(NCCCCc1ccccc1)c1cc(-c2ccccc2)cc(C2N(c3ccccc3)C(=O)CS2(=O)=O)c1 (configuration not stated), the IC50 was > 10000 nM. With O=C(NCCCCc1ccccc1)c1cccc(C2N(CCc3ccccc3)C(=O)C[S+]2[O-])c1 (configuration not stated) the IC50 was > 10000 nM. O=C(NCCCCc1ccccc1)c1cc(C(=O)NCCCCc2ccccc2)cc(C2N(c3ccccc3)C(=O)CS2(=O)=O)c1 (configuration not stated) was tested, and the IC50 was > 10000 nM. COc1ccccc1N1C(=O)CS(=O)(=O)C1c1cccc(C(=O)NCCCCc2ccccc2)n1 (configuration not stated) showed an IC50 of 4 nM. For O=C(NCCCCc1ccccc1)c1cccc(C2N(c3cccc(F)n3)C(=O)CS2(=O)=O)n1 (configuration not stated), the IC50 was > 1000 nM. With COC(=O)c1cc(C(=O)NCCCCc2ccccc2)cc(C2N(c3ccccc3)C(=O)CS2(=O)=O)c1 (configuration not stated) the IC50 was 60 nM. CCCCNC(=O)c1cccc(C2N(c3ccccn3)C(=O)CS2(=O)=O)n1 (configuration not stated) showed an IC50 of 420 nM. For COCCCCNC(=O)c1cccc(C2N(c3ncccc3OC)C(=O)CS2(=O)=O)c1 (configuration not stated), the IC50 was > 1000 nM. CC(C)(C)OCCCCNC(=O)c1cccc(C2N(c3ccccn3)C(=O)CS2(=O)=O)n1 (configuration not stated) was tested, and the IC50 was > 1000 nM.

— ChEMBL document CHEMBL5518196, “Discovery of potent thiazolidin-4-one sulfone derivatives for inhibition of proliferation of osteosarcoma in vitro and in vivo” (Eur J Med Chem, 2024)
